The source of these data is ChEMBL document CHEMBL1122428, “Folate analogues. 20. Synthesis and antifolate activity of 1',2',3',4',5',6'-hexahydrohomofolic acid” (J Med Chem, 1983).

Assay [1] relates to Enterococcus faecium. The experiment in a line: Evaluated for the bacterial growth inhibition and the concentration required for 50% inhibition against Streptococcus faecium (MTX resistant). It counts as functional, organism-based.
Assay [2] relates to Enterococcus faecium. The experiment in a line: Evaluated for the bacterial growth inhibition and the concentration required for 50% inhibition against Streptococcus faecium ATCC 8043 strain. It is filed as functional, organism-based.

The structures appear in SMILES notation.

On to `Nc1nc(O)c2c(n1)NCC(CCN[C@H]1CC[C@@H](C(=O)NC(CCC(=O)O)C(=O)O)CC1)=N2` (some centres not stated), for which the Concentration is > 2000 ng/mL in the assay with Enterococcus faecium [1] and 30 ng/mL in the assay with Enterococcus faecium [2].
In the case of `Nc1nc(O)c2nc(CCNC3CCC(C(=O)O)CC3)cnc2n1` (configuration not stated), the Concentration in the assay with Enterococcus faecium [1] and with Enterococcus faecium [2] was > 2000 ng/mL throughout.
As to `Nc1nc(O)c2c(n1)NCC(CCN[C@H]1CC[C@@H](C(=O)NC(CCC(=O)O)C(=O)O)CC1)N2` (some centres not stated), the Concentration with Enterococcus faecium [1] is > 2000 ng/mL; with Enterococcus faecium [2] it was 38 ng/mL.
In the same order, the values of `Nc1nc(O)c2c(n1)NCC(CCNC1CCC(C(=O)O)CC1)=N2` (configuration not stated) are > 2000 ng/mL and 130 ng/mL.
In the case of `Nc1nc(O)c2nc(CCN[C@H]3CC[C@@H](C(=O)NC(CCC(=O)O)C(=O)O)CC3)cnc2n1` (some centres not stated), the Concentration in the assay on Enterococcus faecium [1] is > 2000 ng/mL; in the assay with Enterococcus faecium [2], 2000 ng/mL.
Consider `Nc1nc(O)c2c(n1)NCC(CCNC1CCC(C(=O)O)CC1)N2` (configuration not stated), for which the Concentration was > 2000 ng/mL with Enterococcus faecium [1] and 260 ng/mL with Enterococcus faecium [2].
